One assay deals with PTEN expression. Nature of the assay: Quantitative RT-PCR of PTEN expression in KILLIN-methylated patient lymphoblastoid cell lines after demethylation and/or histone deacetylase inhibition treatment. Format: cell-based, human. Particulars: seven of the eight patient lymphoblastoid cell lines; decitabine 0.5 μM and/or TSA 200 nM; pooled result for demethylation and/or inhibition of histone deacetylation. The protocol: (§1) The quantitative reverse transcription PCRs were performed as previously described. Bennett et al., Cancer Res.; 67(10): 4657-4664 (2007). The study population included four controls and eight patients that were selected based on confirmed methylation status by bisulfite sequencing analysis and representation of the Cowden syndrome and Cowden-like syndrome condition.
(§2) The study population included eight patients that were selected based on confirmed methylation status by bisulfite sequencing analysis and representation of Cowden syndrome and Cowden-like syndrome condition. Demethylation treatment was performed with a cytosine analog, 5-aza-2′deoxycytidine (decitabine; Sigma), for 96 hours at 0.5 μM concentration with approximately 40% confluent suspension lymphoblastoid cells. Inhibition of histone deacetylation was performed with 200 nM concentration of Trichostatin A (TSA; Sigma) with approximately 40% confluent suspension lymphoblastoid cells for 48 hours, with or without 0.5 μM decitabine. The drug was changed daily, and the cells were collected for RNA isolation.

Another assay has as its system KILLIN expression. Nature of the assay: Quantitative RT-PCR of KILLIN expression in KILLIN-methylated patient lymphoblastoid cell lines after demethylation and/or histone deacetylase inhibition treatment. Format: cell-based, human. Particulars: pooled result for decitabine and/or TSA; for patient cell lines in which KILLIN expression was restored: 7 of the 8 patient lymphoblastoid cell lines, decitabine 0.5 μM and/or TSA 200 nM; for KILLIN expression increase following exposure to decitabine and/or TSA: patient lymphoblastoid cell lines, decitabine 0.5 μM 96 hours and/or TSA 200 nM 48 hours, normalized to untreated counterpart set as 1, 95% confidence interval 1.4-18.1. The protocol:
as §1, §2

Molecules are shown by their SMILES.

Consider `CC(/C=C/C(=O)NO)=C\[C@@H](C)C(=O)c1ccc(N(C)C)cc1` [TSA, Trichostatin A], for which the “patient cell lines with significant decrease in PTEN expression” value with PTEN expression was determined as 88%. In the assay on KILLIN expression, the “patient cell lines in which KILLIN expression was restored” value worked out at 88% and the “KILLIN expression increase following exposure to decitabine and/or TSA” value is 4.88 fold.
As for `Nc1ncn([C@H]2C[C@H](O)[C@@H](CO)O2)c(=O)n1` [decitabine, 5-aza-2′deoxycytidine], the “patient cell lines with significant decrease in PTEN expression” value in the assay on PTEN expression is given as 88%. Moreover, in the assay with KILLIN expression, the “patient cell lines in which KILLIN expression was restored” value is reported as 88% and the “KILLIN expression increase following exposure to decitabine and/or TSA” value is recorded as 4.88 fold.

(Values after patent US9458505B2, “Diagnosis of cowden and cowden-like syndrome by detection of decreased killin expression” (The Cleveland Clinic Foundation, priority 2011, dated 2016).)
